The values below are quoted from earlier work in patent EP3094315B1, “PHARMACEUTICAL COMPOSITION COMPRISING ARIPIPRAZOLE OR SALT THEREOF” (Pharmathen S.A., priority 2014, dated 2015).

Like-named read-outs stand apart in the source and are kept apart here.

Turning to `O=C1CCc2ccc(OCCCCN3CCN(c4cccc(Cl)c4Cl)CC3)cc2N1` [Aripiprazole, 7-{4-[4-(2,3-dichlorophenyl)piperazin-1-yl]butoxy}-3,4-dihydroquinolin-2(1H)-one], the solubility entry is on record as “freely soluble” (in N,N-dimethyl formamide), “freely soluble” (in dichloromethane) and “practically insoluble” (in water).
